Experimental data: patent US9090596B2, “Disubstituted 3,4-diamino-3-cyclobutene-1,2-dione compounds for use in the treatment of chemokine-mediated pathologies” (GALDERMA RESEARCH & DEVELOPMENT, priority 2011, dated 2015)

Tests used:
CXCR2 receptor = CXCR2 receptor (Homo sapiens (Human), UniProt P25025); assay: β-arrestin 2 recruitment test, PathHunter HEK293-CXCR2 cells stimulated with CXCL8; format: cell-based; settings: CXCL8 stimulation
Description: (§1) The in vitro affinity of the compounds of the present invention for the CXCR1 and CXCR2 receptors was determined on a functional test of the β-arrestin recruitment type after receptor activation.
(§2) β-Arrestin Recruitment Assay:
(§3) “PathHunter HEK293-CXCR2” or “U2OS hCXCR1 β-arrestin” cells (DiscoveRx Corporation) were seeded overnight at 10 000 cells/well (384-well format) in 20 μl of Opti MEM I medium. A preincubation with the antagonist or the vehicle for 30 min at 37° C. and 5% CO2 was followed by 60 minutes of stimulation with CXCL8 at 37° C. and 5% CO2. The cells were then placed at ambient temperature for 30 minutes. The PathHunter detection reagent (DiscoveRx Corporation) was added. […] The data were analyzed by means of a non-linear curve procedure using the XLFit4 exploitation software (IDBS) and the IC50 values were determined.

CXCR1 receptor = CXCR1 receptor (Homo sapiens (Human), UniProt P25024); assay: β-arrestin 2 recruitment test, U2OS hCXCR1 β-arrestin cells stimulated with CXCL8; format: cell-based; settings: CXCL8 stimulation
Description: as §1, §2, §3

Chain of CXCR1 receptor (P25024 whole entry): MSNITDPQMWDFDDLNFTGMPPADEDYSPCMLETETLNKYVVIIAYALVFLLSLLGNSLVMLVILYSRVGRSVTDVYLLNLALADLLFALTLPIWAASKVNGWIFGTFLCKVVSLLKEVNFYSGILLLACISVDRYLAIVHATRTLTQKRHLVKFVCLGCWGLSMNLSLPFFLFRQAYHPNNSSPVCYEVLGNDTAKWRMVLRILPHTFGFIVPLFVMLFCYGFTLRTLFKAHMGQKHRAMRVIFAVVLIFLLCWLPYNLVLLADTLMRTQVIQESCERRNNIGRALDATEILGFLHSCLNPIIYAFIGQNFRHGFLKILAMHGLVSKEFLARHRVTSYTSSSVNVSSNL
Chain of CXCR2 receptor (P25025 whole entry): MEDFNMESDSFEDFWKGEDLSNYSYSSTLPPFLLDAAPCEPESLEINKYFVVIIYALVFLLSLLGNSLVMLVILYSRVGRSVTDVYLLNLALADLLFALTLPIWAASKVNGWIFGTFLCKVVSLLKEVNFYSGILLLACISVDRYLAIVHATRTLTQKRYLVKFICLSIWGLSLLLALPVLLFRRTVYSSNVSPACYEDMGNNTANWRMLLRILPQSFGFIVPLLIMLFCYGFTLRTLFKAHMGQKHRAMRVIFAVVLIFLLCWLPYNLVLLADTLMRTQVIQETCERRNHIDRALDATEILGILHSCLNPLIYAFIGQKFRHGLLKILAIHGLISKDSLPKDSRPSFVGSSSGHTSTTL

Row | SMILES | IC50 (CXCR2 receptor) | IC50 (CXCR1 receptor)
1 | COc1cccc(C(Nc2c(Nc3cccc(C(=O)N(C)C)c3O)c(=O)c2=O)C2(C)COC2)c1 (centres unmarked) [Example 28, 3-(2-{[(3-methyloxetan-3-yl)-(3-methoxyphenyl)methyl]-amino}-3,4-dioxocyclobut-1-enylamino)-2-hydroxy-N,N-dimethylbenzamide] | 475 nM | 5540 nM
2 | COc1ccc(Nc2c(NC(c3ccc(C)o3)C3(C)COC3)c(=O)c2=O)c(O)n1 (centres unmarked) [Example 39, 3-(2-hydroxy-6-mèthoxypyridin-3-ylamino)-4-{[(5-methylfuran-2-yl)-(3-methyloxetan-3-yl)methyl]amino}cyclobut-3-ene-1,2-dione] | 1040 nM | 10000 nM
3 | Cc1ccoc1C(Nc1c(Nc2cccc(C(=O)N(C)C)c2O)c(=O)c1=O)C1(C)COC1 (centres unmarked) [Example 37b, 2-Hydroxy-N,N-dimethyl-3-(2-{[(3-methylfuran-2-yl)-(3-methyloxetan-3-yl)methyl]amino}-3,4-dioxocyclobut-1-enylamino)benzamide] | 207 nM | 7690 nM
4 | CN(C)C(=O)c1cccc(Nc2c(NC(c3ccc4c(c3)OCO4)C3(C)COC3)c(=O)c2=O)c1O (centres unmarked) [Example 30, 3-(2-{[benzo[1,3]dioxol-5-yl-(3-methyloxetan-3-yl)methyl]amino}-3,4-dioxocyclobut-1-enylamino)-2-hydroxy-N,N-dimethylbenzamide] | 349 nM | 2240 nM
5 | COc1ccc(C(Nc2c(Nc3cccc(C(=O)N(C)C)c3O)c(=O)c2=O)C2(C)COC2)cc1 (centres unmarked) [Example 29, 3-(2-{[(3-methyloxetan-3-yl)-(4-methoxyphenyl)methyl]amino}-3,4-dioxocyclobut-1-enylamino)-2-hydroxy-N,N-dimethylbenzamide] | 433 nM | –
6 | CC(C)c1coc(C(Nc2c(Nc3cccc(C(=O)N(C)C)c3O)c(=O)c2=O)C2(C)COC2)c1 (centres unmarked) [Example 38, 2-hydroxy-N,N-dimethyl-3-(2-{[(4-isopropylfuran-2-yl)-(3-methyloxetan-3-yl)methyl]amino}-3,4-dioxocyclobut-1-enylamino)benzamide] | 25 nM | 322 nM
7 | Cc1ccc(C(Nc2c(Nc3cccnc3O)c(=O)c2=O)C2(C)COC2)o1 (centres unmarked) [Example 20, 3-(2-hydroxypyridin-3-ylamino)-4-{[(5-methylfuran-2-yl)-(3-methyloxetan-3-yl)methyl]amino}-cyclobut-3-ene-1,2-dione] | 335 nM | 6620 nM
8 | CN(C)C(=O)c1cccc(Nc2c(NC(c3cccs3)C3(C)COC3)c(=O)c2=O)c1O (centres unmarked) [Example 34, 2-hydroxy-N,N-dimethyl-3-(2-{[(3-methyloxetan-3-yl)thiophen-2-ylmethyl]amino}-3,4-dioxocyclobut-1-enylamino)benzamide] | 106 nM | 1610 nM
9 | Cc1ccc(C(Nc2c(Nc3cccc(C(=O)C(C)C)c3O)c(=O)c2=O)C2(C)COC2)o1 (centres unmarked) [Example 12, 3-(2-hydroxy-3-isobutyrylphenylamino)-4-{[(5-methylfuran-2-yl)-(3-methyloxetan-3-yl)methyl]amino}cyclobut-3-ene-1,2-dione] | 100 nM | 10000 nM
10 | Cc1ccc(C(Nc2c(Nc3ccc(Cl)nc3O)c(=O)c2=O)C2(C)COC2)o1 (centres unmarked) [Example 40, 3-(6-chloro-2-hydroxypyridin-3-ylamino)-4-{[(5-methylfuran-2-yl)-(3-methyloxetan-3-yl)methyl]amino}cyclobut-3-ene-1,2-dione] | 502 nM | 5220 nM
11 | Cc1ccc(C(Nc2c(Nc3cccc(C(=O)N4CCCC4)c3O)c(=O)c2=O)C2(C)COC2)o1 (centres unmarked) [Example 14, 3-[2-hydroxy-3-(pyrrolidine-1-carbonyl)phenylamino]-4-{[(5-methylfuran-2-yl)-(3-methyloxetan-3-yl)methyl]amino}cyclobut-3-ene-1,2-dione] | 262 nM | 1300 nM
12 | Cc1ccc(C(Nc2c(Nc3cccc(C(=O)N4CCOCC4)c3O)c(=O)c2=O)C2(C)COC2)o1 (centres unmarked) [Example 15, 3-[2-hydroxy-3-(morpholine-4-carbonyl)phenylamino]-4-{[(5-methylfuran-2-yl)-(3-methyloxetan-3-yl)methyl]amino}cyclobut-3-ene-1,2-dione] | 626 nM | 3170 nM
13 | Cc1ccc(C(Nc2c(Nc3cccc(C#N)c3O)c(=O)c2=O)C2(C)COC2)o1 (centres unmarked) [Example 42, 2-hydroxy-3-(2-{[(5-methylfuran-2-yl)-(3-methyloxetan-3-yl)methyl]amino}-3,4-dioxocyclobut-1-enylamino)benzonitrile] | 311 nM | –
14 | Cc1ccc([C@H](Nc2c(Nc3ccc(Cl)c(C(=O)N(C)C)c3O)c(=O)c2=O)C2(C)COC2)o1 [Example 52, 6-chloro-2-hydroxy-N,N-dimethyl-3-(2-{[(R)-(5-methylfuran-2-yl)-(3-methyloxetan-3-yl)methyl]amino}-3,4-dioxocyclobut-1-enylamino)benzamide] | 373 nM | 897 nM
15 | Cc1ccc([C@H](Nc2c(Nc3cccc(C(=O)N(C)CC(F)(F)F)c3O)c(=O)c2=O)C2(C)COC2)o1 [Example 48, 2-hydroxy-N-methyl-3-(2-{[(R)-(5-methylfuran-2-yl)-(3-methyloxetan-3-yl)methyl]amino}-3,4-dioxocyclobut-1-enylamino)-N-(2,2,2-trifluoroethyl)benzamide] | 26 nM | 566 nM
16 | COC(=O)[C@@H]1CCCN1C(=O)c1cccc(Nc2c(N[C@@H](c3ccc(C)o3)C3(C)COC3)c(=O)c2=O)c1O [Example 9, methyl (S)-1-[2-hydroxy-3-(2-{[(R)-(5-methylfuran-2-yl)-(3-methyloxetan-3-yl)methyl]amino}-3,4-dioxocyclobut-1-enylamino)benzoyl]pyrrolidine-2-carboxylate] | 60 nM | 666 nM
17 | COC(=O)CN(C)C(=O)c1cccc(Nc2c(N[C@@H](c3ccc(C)o3)C3(C)COC3)c(=O)c2=O)c1O [Example 51, methyl {[2-hydroxy-3-(2-{[(R)-(5-methylfuran-2-yl)-(3-methyloxetan-3-yl)methyl]amino}-3,4-dioxocyclobut-1-enylamino)benzoyl]methylamino}acetate] | 72 nM | 650 nM
18 | CCC1(C(Nc2c(Nc3cccc(C(=O)N(C)C)c3O)c(=O)c2=O)c2ccc(C)o2)COC1 (centres unmarked) [Example 3, 3-(2-{[(3-ethyloxetan-3-yl)-(5-methylfuran-2-yl)methyl]amino}-3,4-dioxocyclobut-1-enylamino)-2-hydroxy-N,N-dimethylbenzamide] | 106 nM | 1150 nM
19 | Cc1coc(C(Nc2c(Nc3cccc(C(=O)N(C)C)c3O)c(=O)c2=O)C2(C)COC2)c1 (centres unmarked) [Example 37a, 2-hydroxy-N,N-dimethyl-3-(2-{[(4-methylfuran-2-yl)-(3-methyloxetan-3-yl)methyl]amino}-3,4-dioxocyclobut-1-enylamino)benzamide] | 32 nM | 827 nM
20 | CN(C)C(=O)c1cccc(Nc2c(NC(c3ccco3)C3(C)COC3)c(=O)c2=O)c1O (centres unmarked) [Example 36, 3-(2-{[furan-2-yl-(3-methyloxetan-3-yl)methyl]amino}-3,4-dioxocyclobut-1-enylamino)-2-hydroxy-N,N-dimethylbenzamide] | 198 nM | 1710 nM
